Assay results reported in patent US20210215714A1, “COMPLEMENT ALTERNATIVE PATHWAY-ASSOCIATED NEPHROPATHY BIOMARKERS” (Achillion Pharmaceuticals, Inc., priority 2018, published 2021).
Entries after “also recorded” stand apart in the source; their conditions may differ.

Test system: Ba
Experiment: Phase 2a study: urinary Ba (MicroVue Ba Enzyme Immunoassay)
Type: in vivo, human
Conditions: for Urine Ba / Ba/ALB / Ba/Cr: 200 mg TID; for Ba/ALB GEOMEAN / Ba/ALB MEAN / Ba/Cr GEOMEAN / Ba/Cr MEAN / Urine Ba MEAN / Urine Ba GEOMEAN: patients A-F

`CC(=O)c1nn(CC(=O)N2C[C@H](F)C[C@H]2C(=O)Nc2cccc(Br)n2)c2ccc(-c3cnc(C)nc3)cc12` [Compound 1, (2S,4R)-1-(2-(3-acetyl-5-(2-methylpyrimidin-5-yl)-1H-indazol-1-yl)acetyl)-N-(6-bromopyridin-2-yl)-4-fluoropyrrolidine-2-carboxamide] was tested, and the “Urine Ba” value (Patient D, Day 21 Taper) was 18.6 ng/mL, the Ba/ALB (Patient D, Follow-Up Day 24) was 14.9 ng/mg and the Ba/Cr (Patient D, Follow-Up Day 24) was 4.2 µg/mmol. For the same compound, the “Urine Ba” value (Patient D, Follow-Up Day 24) was 28.7 ng/mL, the Ba/ALB (Patient D, Follow-Up Day 28) was 10.8 ng/mg and the Ba/Cr (Patient D, Follow-Up Day 28) was 6.2 µg/mmol. The “Urine Ba” value (Patient D, Follow-Up Day 28) was 30.0 ng/mL, the Ba/ALB (Patient D, Follow-Up Day 49) was 3.8 ng/mg and the Ba/Cr (Patient D, Follow-Up Day 49) was 2.4 µg/mmol. The “Urine Ba” value (Patient D, Follow-Up Day 49) was 9.4 ng/mL, the Ba/ALB (Patient D, Screen) was 19.2 ng/mg and the Ba/Cr (Patient D, Screen) was 11.1 µg/mmol. The “Urine Ba” value (Patient D, Screen) was 84.4 ng/mL, the Ba/ALB (Patient E, Day 1/0 Hour) was 33.5 ng/mg and the Ba/Cr (Patient E, Day 1/0 Hour) was 14.2 µg/mmol. The “Urine Ba” value (Patient E, Day 1/0 Hour) was 252 ng/mL, the Ba/ALB (Patient E, Day 4) was 14.7 ng/mg and the Ba/Cr (Patient E, Day 4) was 6.2 µg/mmol. For the same compound, the “Urine Ba” value (Patient E, Day 4) was 129 ng/mL, the Ba/ALB (Patient E, Day 7/0 Hour) was 17.3 ng/mg and the Ba/Cr (Patient E, Day 7/0 Hour) was 9.2 µg/mmol. For the same compound, the “Urine Ba” value (Patient E, Day 7/0 Hour) was 142 ng/mL, the Ba/ALB (Patient E, Day 10) was 12.8 ng/mg and the Ba/Cr (Patient E, Day 10) was 8.0 µg/mmol. For the same compound, the “Urine Ba” value (Patient E, Day 10) was 106 ng/mL, the Ba/ALB (Patient E, Day 14) was 6.9 ng/mg and the Ba/Cr (Patient E, Day 14) was 1.8 µg/mmol. The “Urine Ba” value (Patient E, Day 14) was 41 ng/mL, the Ba/ALB (Patient E, Day 15 Taper) was 3.6 ng/mg and the Ba/Cr (Patient E, Day 15 Taper) was 1.2 µg/mmol. For the same compound, the “Urine Ba” value (Patient E, Day 15 Taper) was 11 ng/mL, the Ba/ALB (Patient E, Day 16 Taper) was 7.2 ng/mg and the Ba/Cr (Patient E, Day 16 Taper) was 2.0 µg/mmol. For the same compound, the “Urine Ba” value (Patient E, Day 16 Taper) was 20 ng/mL, the Ba/ALB (Patient E, Day 17 Taper) was 12.7 ng/mg and the Ba/Cr (Patient E, Day 17 Taper) was 6.0 µg/mmol. For the same compound, the “Urine Ba” value (Patient E, Day 17 Taper) was 47 ng/mL, the Ba/ALB (Patient E, Day 21 Taper) was 21.6 ng/mg and the Ba/Cr (Patient E, Day 21 Taper) was 5.5 µg/mmol. For the same compound, the “Urine Ba” value (Patient E, Day 21 Taper) was 42 ng/mL, the Ba/ALB (Patient E, Follow-Up Day 24) was 41.2 ng/mg and the Ba/Cr (Patient E, Follow-Up Day 24) was 12.5 µg/mmol. The “Urine Ba” value (Patient E, Follow-Up Day 24) was 156 ng/mL, the Ba/ALB (Patient E, Follow-Up Day 28) was 46.1 ng/mg and the Ba/Cr (Patient E, Follow-Up Day 28) was 14.1 µg/mmol. The “Urine Ba” value (Patient E, Follow-Up Day 28) was 234 ng/mL, the Ba/ALB (Patient E, Follow-Up Day 49) was 40.0 ng/mg and the Ba/Cr (Patient E, Follow-Up Day 49) was 13.1 µg/mmol. The “Urine Ba” value (Patient E, Follow-Up Day 49) was 207 ng/mL, the Ba/ALB (Patient F, Day 1/0 Hour) was 25.9 ng/mg and the Ba/Cr (Patient F, Day 1/0 Hour) was 7.6 µg/mmol. For the same compound, the “Urine Ba” value (Patient F, Day 1/0 Hour) was 74.9 ng/mL, the Ba/ALB (Patient F, Day 4) was 7.6 ng/mg and the Ba/Cr (Patient F, Day 4) was 1.2 µg/mmol. The “Urine Ba” value (Patient F, Day 4) was 5.7 ng/mL, the Ba/ALB (Patient F, Day 7/0 Hour) was 5.7 ng/mg and the Ba/Cr (Patient F, Day 7/0 Hour) was 0.5 µg/mmol. The “Urine Ba” value (Patient F, Day 7/0 Hour) was 2.1 ng/mL, the “Urine Ba” value (Patient F, Day 10) was 2.1 ng/mL and the Ba/ALB (Patient F, Day 14) was 5.8 ng/mg. For the same compound, the Ba/Cr (Patient F, Day 14) was 1.1 µg/mmol, the “Urine Ba” value (Patient F, Day 14) was 9.8 ng/mL and the Ba/ALB (Patient F, Day 15 Taper) was 0.6 ng/mg. The Ba/Cr (Patient F, Day 15 Taper) was 0.5 µg/mmol, the “Urine Ba” value (Patient F, Day 15 Taper) was 2.8 ng/mL and the Ba/ALB (Patient F, Day 16 Taper) was 2.6 ng/mg. For the same compound, the Ba/Cr (Patient F, Day 16 Taper) was 0.6 µg/mmol, the “Urine Ba” value (Patient F, Day 16 Taper) was 2.2 ng/mL and the Ba/ALB (Patient F, Day 17 Taper) was 1.6 ng/mg. For the same compound, the Ba/Cr (Patient F, Day 17 Taper) was 0.7 µg/mmol, the “Urine Ba” value (Patient F, Day 17 Taper) was 6.9 ng/mL and the Ba/ALB (Patient F, Day 21 Taper) was 1.5 ng/mg. For the same compound, the Ba/Cr (Patient F, Day 21 Taper) was 0.5 µg/mmol, the “Urine Ba” value (Patient F, Day 21 Taper) was 6.6 ng/mL and the Ba/ALB (Patient F, Follow-Up Day 24) was 1.5 ng/mg. The Ba/Cr (Patient F, Follow-Up Day 24) was 0.4 µg/mmol, the “Urine Ba” value (Patient F, Follow-Up Day 24) was 2.2 ng/mL and the Ba/ALB (Patient F, Follow-Up Day 28) was 2.5 ng/mg. For the same compound, the Ba/Cr (Patient F, Follow-Up Day 28) was 0.6 µg/mmol, the “Urine Ba” value (Patient F, Follow-Up Day 28) was 2.8 ng/mL and the Ba/Cr (Patient F, Follow-Up Day 49) was 8.2 µg/mmol. The “Urine Ba” value (Patient F, Follow-Up Day 49) was 44.4 ng/mL, the “Ba/ALB GEOMEAN” value (Day 1/0 Hour) was 22.6 ng/mg and the “Ba/ALB MEAN” value (Day 1/0 Hour) was 53.4 ng/mg. The “Ba/Cr GEOMEAN” value (Day 1/0 Hour) was 5.7 µg/mmol, the “Ba/Cr MEAN” value (Day 1/0 Hour) was 26.7 µg/mmol and the “Urine Ba MEAN” value (Day 1/0 Hour) was 197 ng/mL. For the same compound, the “Ba/ALB GEOMEAN” value (Day 4) was 7.8 ng/mg, the “Ba/ALB MEAN” value (Day 4) was 13.8 ng/mg and the “Ba/Cr GEOMEAN” value (Day 4) was 1.4 µg/mmol. For the same compound, the “Ba/Cr MEAN” value (Day 4) was 3.8 µg/mmol, the “Urine Ba GEOMEAN” value (Day 4) was 9.1 ng/mL and the “Urine Ba MEAN” value (Day 4) was 52 ng/mL. The “Ba/ALB GEOMEAN” value (Day 7/0 Hour) was 8.9 ng/mg, the “Ba/ALB MEAN” value (Day 7/0 Hour) was 13.4 ng/mg and the “Ba/Cr GEOMEAN” value (Day 7/0 Hour) was 1.5 µg/mmol. For the same compound, the “Ba/Cr MEAN” value (Day 7/0 Hour) was 4.0 µg/mmol, the “Urine Ba GEOMEAN” value (Day 7/0 Hour) was 7.9 ng/mL and the “Urine Ba MEAN” value (Day 7/0 Hour) was 51 ng/mL. For the same compound, the “Urine Ba GEOMEAN” value (Day 10) was 5.0 ng/mL, the “Urine Ba MEAN” value (Day 10) was 28 ng/mL and the “Ba/ALB GEOMEAN” value (Day 15 Taper) was 4.9 ng/mg. The “Ba/ALB MEAN” value (Day 15 Taper) was 13.4 ng/mg, the “Ba/Cr GEOMEAN” value (Day 15 Taper) was 1.2 µg/mmol and the “Ba/Cr MEAN” value (Day 15 Taper) was 4.1 µg/mmol. The “Urine Ba GEOMEAN” value (Day 15 Taper) was 6.8 ng/mL, the “Urine Ba MEAN” value (Day 15 Taper) was 41 ng/mL and the “Ba/ALB GEOMEAN” value (Day 17 Taper) was 6.9 ng/mg. The “Ba/ALB MEAN” value (Day 17 Taper) was 15.4 ng/mg, the “Ba/Cr GEOMEAN” value (Day 17 Taper) was 1.6 µg/mmol and the “Ba/Cr MEAN” value (Day 17 Taper) was 4.2 µg/mmol. For the same compound, the “Urine Ba GEOMEAN” value (Day 17 Taper) was 9.5 ng/mL, the “Urine Ba MEAN” value (Day 17 Taper) was 41 ng/mL and the “Ba/ALB MEAN” value (Day 21 Taper) was 24.5 ng/mg. For the same compound, the “Ba/Cr GEOMEAN” value (Day 21 Taper) was 2.6 µg/mmol, the “Ba/Cr MEAN” value (Day 21 Taper) was 6.0 µg/mmol and the “Urine Ba GEOMEAN” value (Day 21 Taper) was 17.2 ng/mL. For the same compound, the “Urine Ba MEAN” value (Day 21 Taper) was 46 ng/mL, the “Ba/ALB MEAN” value (Follow-Up Day 24) was 38.5 ng/mg and the “Ba/Cr GEOMEAN” value (Follow-Up Day 24) was 3.0 µg/mmol. The “Ba/Cr MEAN” value (Follow-Up Day 24) was 11.6 µg/mmol, the “Urine Ba GEOMEAN” value (Follow-Up Day 24) was 18.4 ng/mL and the “Urine Ba MEAN” value (Follow-Up Day 24) was 92 ng/mL. The “Ba/ALB GEOMEAN” value (Follow-Up Day 28) was 17.4 ng/mg, the “Ba/ALB MEAN” value (Follow-Up Day 28) was 34.3 ng/mg and the “Ba/Cr GEOMEAN” value (Follow-Up Day 28) was 3.8 µg/mmol. For the same compound, the “Ba/Cr MEAN” value (Follow-Up Day 28) was 9.3 µg/mmol, the “Urine Ba GEOMEAN” value (Follow-Up Day 28) was 24.5 ng/mL and the “Urine Ba MEAN” value (Follow-Up Day 28) was 90 ng/mL. For the same compound, the “Ba/ALB GEOMEAN” value (Follow-Up Day 49) was 20.7 ng/mg, the “Ba/ALB MEAN” value (Follow-Up Day 49) was 143.0 ng/mg and the “Ba/Cr GEOMEAN” value (Follow-Up Day 49) was 3.9 µg/mmol. The “Ba/Cr MEAN” value (Follow-Up Day 49) was 22.6 µg/mmol, the “Urine Ba GEOMEAN” value (Follow-Up Day 49) was 27.2 ng/mL and the “Urine Ba MEAN” value (Follow-Up Day 49) was 334 ng/mL. The “Urinary Ba levels” value (two-week treatment) was “reduced significantly; also recorded: reduced in all patients” and the “Urinary Ba levels normalized to urinary creatinine or albumin” value (two-week treatment) was “reduced significantly”.
